Reference: ChEMBL document CHEMBL4680217, “Discovery of PROTAC BCL-X degraders as potent anticancer agents with low on-target platelet toxicity” (Eur J Med Chem, 2020)
The source made the active and inactive calls. The rule behind the calls is not given here.

What was measured:
[1] = test system: MOLT-4; test: Antiproliferative activity against human MOLT-4 cells assessed as reduction in cell viability measured after 48 hrs by MTS assay; format: functional, cell-based; settings: MOLT-4, 48 h
[2] = molecular target: von Hippel-Lindau disease tumor suppressor/Bcl-2-like protein 1 (Homo sapiens, UniProt Q07817+P40337); test: Protac activity at VHL/BCL-XL in human MOLT-4 cells assessed as induction of BCL-XL degradation by measuring remaining BCL-XL level at 100 nM measured after 16 hrs by immunoblotting analysis relative to control; format: cell-based
von Hippel-Lindau disease tumor suppressor/Bcl-2-like protein 1, sequence (P40337 whole entry, looked up): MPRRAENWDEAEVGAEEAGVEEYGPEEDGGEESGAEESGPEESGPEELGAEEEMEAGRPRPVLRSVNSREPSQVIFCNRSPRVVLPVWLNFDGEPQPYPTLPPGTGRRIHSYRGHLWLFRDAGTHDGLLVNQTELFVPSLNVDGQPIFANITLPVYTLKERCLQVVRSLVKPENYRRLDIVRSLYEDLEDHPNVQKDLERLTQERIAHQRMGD
von Hippel-Lindau disease tumor suppressor/Bcl-2-like protein 1, sequence (Q07817 whole entry, looked up): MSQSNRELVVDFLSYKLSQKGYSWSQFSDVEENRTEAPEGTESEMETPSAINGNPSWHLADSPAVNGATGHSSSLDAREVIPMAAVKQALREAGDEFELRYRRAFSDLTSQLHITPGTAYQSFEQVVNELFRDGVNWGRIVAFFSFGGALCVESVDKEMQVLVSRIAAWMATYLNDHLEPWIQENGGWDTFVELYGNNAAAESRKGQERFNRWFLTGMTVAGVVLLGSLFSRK

[3] = molecular target: von Hippel-Lindau disease tumor suppressor/Apoptosis regulator Bcl-2 (Homo sapiens) (UniProt P10415+P40337); test: Protac activity at VHL/BCL2 in human MOLT-4 cells assessed as induction of BCL2 degradation at 100 nM measured after 16 hrs by immunoblotting analysis; format: cell-based
von Hippel-Lindau disease tumor suppressor/Apoptosis regulator Bcl-2 (Homo sapiens), sequence (P10415 whole entry, looked up): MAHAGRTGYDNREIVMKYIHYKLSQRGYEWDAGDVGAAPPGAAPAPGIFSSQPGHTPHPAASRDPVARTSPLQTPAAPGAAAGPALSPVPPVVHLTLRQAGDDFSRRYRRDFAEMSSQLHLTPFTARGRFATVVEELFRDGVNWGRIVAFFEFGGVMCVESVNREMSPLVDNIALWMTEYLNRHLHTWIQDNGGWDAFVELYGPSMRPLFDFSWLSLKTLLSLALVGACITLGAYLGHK
von Hippel-Lindau disease tumor suppressor/Apoptosis regulator Bcl-2 (Homo sapiens), sequence (P40337 whole entry, looked up): as the sequence (P40337 whole entry, looked up) above

[4] = molecular target: T1, Protein cereblon/Bcl-2-like protein 1 (Homo sapiens, UniProt Q07817+Q96SW2); test: Protac activity at CRBN/BCL-XL in human MOLT-4 cells assessed as induction of BCL-XL degradation measured after 16 hrs by immunoblotting analysis; format: cell-based
Target sequence in this assay (Q07817 whole entry): as the sequence (Q07817 whole entry, looked up) above
Target sequence in this assay (Q96SW2 whole entry): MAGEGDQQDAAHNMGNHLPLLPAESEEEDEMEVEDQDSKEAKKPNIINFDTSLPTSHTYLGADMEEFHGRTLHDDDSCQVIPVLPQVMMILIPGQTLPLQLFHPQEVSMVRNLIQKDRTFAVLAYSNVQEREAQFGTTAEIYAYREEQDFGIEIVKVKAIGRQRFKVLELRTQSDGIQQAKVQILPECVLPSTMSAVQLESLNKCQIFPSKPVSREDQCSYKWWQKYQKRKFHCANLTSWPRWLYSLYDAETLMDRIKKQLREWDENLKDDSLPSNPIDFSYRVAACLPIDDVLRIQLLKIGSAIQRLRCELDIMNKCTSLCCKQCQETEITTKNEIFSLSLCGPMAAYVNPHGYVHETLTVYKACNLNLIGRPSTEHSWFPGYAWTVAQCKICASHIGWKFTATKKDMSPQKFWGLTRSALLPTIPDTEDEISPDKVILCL

[5] = molecular target: T1, Protein cereblon/Bcl-2-like protein 1; test: Protac activity at CRBN/BCL-XL in human MOLT-4 cells assessed as induction of BCL-XL degradation by measuring remaining BCL-XL level at 50 nM measured after 16 hrs by immunoblotting analysis relative to control; format: cell-based
Target sequence in this assay (Q07817 whole entry, looked up): as the sequence (Q07817 whole entry, looked up) above
Target sequence in this assay (Q96SW2 whole entry, looked up): as the sequence (Q96SW2 whole entry) above

[6] = molecular target: Protein cereblon/Apoptosis regulator Bcl-2 (Homo sapiens) (UniProt P10415+Q96SW2); test: Protac activity at CRBN/BCL2 in human MOLT-4 cells assessed as induction of BCL2 degradation at 50 nM measured after 16 hrs by immunoblotting analysis; format: cell-based
Protein cereblon/Apoptosis regulator Bcl-2 (Homo sapiens), sequence (P10415 whole entry, looked up): as the sequence (P10415 whole entry, looked up) above
Protein cereblon/Apoptosis regulator Bcl-2 (Homo sapiens), sequence (Q96SW2 whole entry, looked up): as the sequence (Q96SW2 whole entry) above

[7] = test system: RS4-11; test: Antiproliferative activity against human RS4-11 cells assessed as reduction in cell viability measured after 48 hrs by MTS assay; format: functional, cell-based; settings: RS4-11, 48 h
[8] = test system: NCI-H146; test: Antiproliferative activity against human NCI-H146 cells assessed as reduction in cell viability measured after 48 hrs by MTS assay; format: functional, cell-based; settings: NCI-H146, 48 h
[9] = Toxicity in human platelet assessed as reduction in cell viability measured after 48 hrs by MTS assay; format: tissue-based; settings: human platelets
[10] = Selectivity index, ratio of IC50 for human platelet to IC50 for human MOLT-4 cells

Row | IC50 [1] [nM] | Activity [2] [%] | Activity [3] | Compound | further results
1 | 147 | 45 | inactive | Cc1ncsc1-c1ccc([C@H](C)NC(=O)[C@@H]2C[C@@H](O)CN2C(=O)[C@@H](NC(=O)CCCCCCCN(C)CC[C@H](CSc2ccccc2)Nc2ccc(S(=O)(=O)NC(=O)c3ccc(N4CCN(CC5=C(c6ccc(Cl)cc6)CCC(C)(C)C5)CC4)cc3)cc2S(=O)(=O)C(F)(F)F)C(C)(C)C)cc1 | 
2 | > 2000 | 82 | inactive | Cc1ncsc1-c1ccc([C@H](C)NC(=O)[C@@H]2C[C@@H](O)CN2C(=O)[C@@H](NC(=O)CCCC(=O)N2CCN(CC[C@H](CSc3ccccc3)Nc3ccc(S(=O)(=O)NC(=O)c4ccc(N5CCN(CC6=C(c7ccc(Cl)cc7)CCC(C)(C)C6)CC5)cc4)cc3S(=O)(=O)C(F)(F)F)CC2)C(C)(C)C)cc1 | 
3 | 29.2 |  |  | CN(CCCCCCCn1cc(COCCOCCNc2cccc3c2C(=O)N([C@@H]2CCC(=O)NC2=O)C3=O)nn1)CC[C@H](CSc1ccccc1)Nc1ccc(S(=O)(=O)NC(=O)c2ccc(N3CCN(CC4=C(c5ccc(Cl)cc5)CCC(C)(C)C4)CC3)cc2)cc1S(=O)(=O)C(F)(F)F | DC50 [4]: 6.3 nM; Activity [5]: 18%; Activity [6]: inactive; IC50 [7]: 62.2 nM; IC50 [8]: 61.7 nM; IC50 at 48 h [9]: 6250 nM; Ratio IC50 [10]: 214
4 | 206 | 33 | inactive | Cc1ncsc1-c1ccc([C@H](C)NC(=O)[C@@H]2C[C@@H](O)CN2C(=O)[C@@H](NC(=O)COCCOCCOCCOCCN(C)CC[C@H](CSc2ccccc2)Nc2ccc(S(=O)(=O)NC(=O)c3ccc(N4CCN(CC5=C(c6ccc(Cl)cc6)CCC(C)(C)C5)CC4)cc3)cc2S(=O)(=O)C(F)(F)F)C(C)(C)C)cc1 | 
5 | > 2000 | 78 | inactive | Cc1ncsc1-c1ccc([C@H](C)NC(=O)[C@@H]2C[C@@H](O)CN2C(=O)[C@@H](NC(=O)CCCCCC(=O)N(C)CC[C@H](CSc2ccccc2)Nc2ccc(S(=O)(=O)NC(=O)c3ccc(N4CCN(CC5=C(c6ccc(Cl)cc6)CCC(C)(C)C5)CC4)cc3)cc2S(=O)(=O)C(F)(F)F)C(C)(C)C)cc1 | 
6 |  |  |  | O=C1CCC(N2C(=O)c3cccc(NCCOCCOCc4cn(CCCC(=O)N5CCN(CC#Cc6ccc(OCCCc7sc(N8CCc9cccc(C(=O)Nc%10nc%11ccccc%11s%10)c9C8)nc7C(=O)O)c(F)c6)CC5)nn4)c3C2=O)C(=O)N1 (configuration not stated) | DC50 [4]: 50 nM
7 | 914 | 55 | inactive | Cc1ncsc1-c1ccc([C@H](C)NC(=O)[C@@H]2C[C@@H](O)CN2C(=O)[C@@H](NC(=O)CCOCCOCCN2CCN(CC[C@H](CSc3ccccc3)Nc3ccc(S(=O)(=O)NC(=O)c4ccc(N5CCN(CC6=C(c7ccc(Cl)cc7)CCC(C)(C)C6)CC5)cc4)cc3S(=O)(=O)C(F)(F)F)CC2)C(C)(C)C)cc1 | 
8 | 1060 | 62 | inactive | Cc1ncsc1-c1ccc([C@H](C)NC(=O)[C@@H]2C[C@@H](O)CN2C(=O)[C@@H](NC(=O)CCCCCCCCCN(C)CC[C@H](CSc2ccccc2)Nc2ccc(S(=O)(=O)NC(=O)c3ccc(N4CCN(CC5=C(c6ccc(Cl)cc6)CCC(C)(C)C5)CC4)cc3)cc2S(=O)(=O)C(F)(F)F)C(C)(C)C)cc1 | 
9 | 512 | 79 | inactive | Cc1ncsc1-c1ccc([C@H](C)NC(=O)[C@@H]2C[C@@H](O)CN2C(=O)[C@@H](NC(=O)COCCOCC(=O)N2CCN(CC[C@H](CSc3ccccc3)Nc3ccc(S(=O)(=O)NC(=O)c4ccc(N5CCN(CC6=C(c7ccc(Cl)cc7)CCC(C)(C)C6)CC5)cc4)cc3S(=O)(=O)C(F)(F)F)CC2)C(C)(C)C)cc1 | 
10 | 181 | 78 | inactive | Cc1ncsc1-c1ccc([C@H](C)NC(=O)[C@@H]2C[C@@H](O)CN2C(=O)[C@@H](NC(=O)CCCCCCCN2CCN(CC[C@H](CSc3ccccc3)Nc3ccc(S(=O)(=O)NC(=O)c4ccc(N5CCN(CC6=C(c7ccc(Cl)cc7)CCC(C)(C)C6)CC5)cc4)cc3S(=O)(=O)C(F)(F)F)CC2)C(C)(C)C)cc1 | 
11 | 130 | 61 | inactive | Cc1ncsc1-c1ccc([C@H](C)NC(=O)[C@@H]2C[C@@H](O)CN2C(=O)[C@@H](NC(=O)CCCCN2CCN(CC[C@H](CSc3ccccc3)Nc3ccc(S(=O)(=O)NC(=O)c4ccc(N5CCN(CC6=C(c7ccc(Cl)cc7)CCC(C)(C)C6)CC5)cc4)cc3S(=O)(=O)C(F)(F)F)CC2)C(C)(C)C)cc1 | 
12 | 151 | 72 | inactive | Cc1ncsc1-c1ccc([C@H](C)NC(=O)[C@@H]2C[C@@H](O)CN2C(=O)[C@@H](NC(=O)CCOCCN2CCN(CC[C@H](CSc3ccccc3)Nc3ccc(S(=O)(=O)NC(=O)c4ccc(N5CCN(CC6=C(c7ccc(Cl)cc7)CCC(C)(C)C6)CC5)cc4)cc3S(=O)(=O)C(F)(F)F)CC2)C(C)(C)C)cc1 | 
13 | > 2000 | 96 | inactive | Cc1ncsc1-c1ccc([C@H](C)NC(=O)[C@@H]2C[C@@H](O)CN2C(=O)[C@@H](NC(=O)CC(=O)N2CCN(CC[C@H](CSc3ccccc3)Nc3ccc(S(=O)(=O)NC(=O)c4ccc(N5CCN(CC6=C(c7ccc(Cl)cc7)CCC(C)(C)C6)CC5)cc4)cc3S(=O)(=O)C(F)(F)F)CC2)C(C)(C)C)cc1 | 
14 | 97 | 24 | inactive | Cc1ncsc1-c1ccc([C@H](C)NC(=O)[C@@H]2C[C@@H](O)CN2C(=O)[C@@H](NC(=O)COCCOCCN(C)CC[C@H](CSc2ccccc2)Nc2ccc(S(=O)(=O)NC(=O)c3ccc(N4CCN(CC5=C(c6ccc(Cl)cc6)CCC(C)(C)C5)CC4)cc3)cc2S(=O)(=O)C(F)(F)F)C(C)(C)C)cc1 | 
15 | 200 | 33 | inactive | Cc1ncsc1-c1ccc([C@H](C)NC(=O)[C@@H]2C[C@@H](O)CN2C(=O)[C@@H](NC(=O)COCCOCCOCCN(C)CC[C@H](CSc2ccccc2)Nc2ccc(S(=O)(=O)NC(=O)c3ccc(N4CCN(CC5=C(c6ccc(Cl)cc6)CCC(C)(C)C5)CC4)cc3)cc2S(=O)(=O)C(F)(F)F)C(C)(C)C)cc1 | 
16 | 232 | 48 | inactive | Cc1ncsc1-c1ccc([C@H](C)NC(=O)[C@@H]2C[C@@H](O)CN2C(=O)[C@@H](NC(=O)COCCCOCC(=O)N2CCN(CC[C@H](CSc3ccccc3)Nc3ccc(S(=O)(=O)NC(=O)c4ccc(N5CCN(CC6=C(c7ccc(Cl)cc7)CCC(C)(C)C6)CC5)cc4)cc3S(=O)(=O)C(F)(F)F)CC2)C(C)(C)C)cc1 | 
17 | 324 | 62 | inactive | Cc1ncsc1-c1ccc([C@H](C)NC(=O)[C@@H]2C[C@@H](O)CN2C(=O)[C@@H](NC(=O)CCOCCC(=O)N2CCN(CC[C@H](CSc3ccccc3)Nc3ccc(S(=O)(=O)NC(=O)c4ccc(N5CCN(CC6=C(c7ccc(Cl)cc7)CCC(C)(C)C6)CC5)cc4)cc3S(=O)(=O)C(F)(F)F)CC2)C(C)(C)C)cc1 | 
18 | 467 | 52 | inactive | Cc1ncsc1-c1ccc([C@H](C)NC(=O)[C@@H]2C[C@@H](O)CN2C(=O)[C@@H](NC(=O)CCCCC(=O)N2CCN(CC[C@H](CSc3ccccc3)Nc3ccc(S(=O)(=O)NC(=O)c4ccc(N5CCN(CC6=C(c7ccc(Cl)cc7)CCC(C)(C)C6)CC5)cc4)cc3S(=O)(=O)C(F)(F)F)CC2)C(C)(C)C)cc1 | 
19 | > 2000 | 92 | inactive | Cc1ncsc1-c1ccc([C@H](C)NC(=O)[C@@H]2C[C@@H](O)CN2C(=O)[C@@H](NC(=O)CCC(=O)N2CCN(CC[C@H](CSc3ccccc3)Nc3ccc(S(=O)(=O)NC(=O)c4ccc(N5CCN(CC6=C(c7ccc(Cl)cc7)CCC(C)(C)C6)CC5)cc4)cc3S(=O)(=O)C(F)(F)F)CC2)C(C)(C)C)cc1 | 
20 | 94.5 | 62 | inactive | Cc1ncsc1-c1ccc([C@H](C)NC(=O)[C@@H]2C[C@@H](O)CN2C(=O)[C@@H](NC(=O)CCCCCCN2CCN(CC[C@H](CSc3ccccc3)Nc3ccc(S(=O)(=O)NC(=O)c4ccc(N5CCN(CC6=C(c7ccc(Cl)cc7)CCC(C)(C)C6)CC5)cc4)cc3S(=O)(=O)C(F)(F)F)CC2)C(C)(C)C)cc1 | 
21 | 460 | 60 | inactive | Cc1ncsc1-c1ccc([C@H](C)NC(=O)[C@@H]2C[C@@H](O)CN2C(=O)[C@@H](NC(=O)CCCCCN(C)CC[C@H](CSc2ccccc2)Nc2ccc(S(=O)(=O)NC(=O)c3ccc(N4CCN(CC5=C(c6ccc(Cl)cc6)CCC(C)(C)C5)CC4)cc3)cc2S(=O)(=O)C(F)(F)F)C(C)(C)C)cc1 | 
22 | 1240 | 75 | inactive | Cc1ncsc1-c1ccc([C@H](C)NC(=O)[C@@H]2C[C@@H](O)CN2C(=O)[C@@H](NC(=O)CCCCN(C)CC[C@H](CSc2ccccc2)Nc2ccc(S(=O)(=O)NC(=O)c3ccc(N4CCN(CC5=C(c6ccc(Cl)cc6)CCC(C)(C)C5)CC4)cc3)cc2S(=O)(=O)C(F)(F)F)C(C)(C)C)cc1 | 
23 | 108 | 32 | inactive | Cc1ncsc1-c1ccc([C@H](C)NC(=O)[C@@H]2C[C@@H](O)CN2C(=O)[C@@H](NC(=O)CCCCCCC(=O)N2CCN(CC[C@H](CSc3ccccc3)Nc3ccc(S(=O)(=O)NC(=O)c4ccc(N5CCN(CC6=C(c7ccc(Cl)cc7)CCC(C)(C)C6)CC5)cc4)cc3S(=O)(=O)C(F)(F)F)CC2)C(C)(C)C)cc1 | 
